In patent US20220279787A1, “a-Substituted Phenyl Structure-Containing Compound, Preparation Method Thereof, and Disinfectant” (Henan Ruibo Pharmaceutical Technology Co. Ltd., priority 2019, published 2022):

What was measured:
Assay type in all cases: cell-based
[1] = system: Bacillus subtilis var. niger spores ATCC 9372; experiment: Suspension quantitative experiment, Bacillus subtilis var. niger spores; conditions: Bacillus subtilis, ATCC9372, 0.5 h, read-out: Activity (killing logarithmic value)
Protocol: (4) Operation Method of Suspension Quantitative Experiment:
(§1) a. The Bacillus subtilis var. niger spores ATCC 9372 freeze-dried strain tube was provided, opened up under an aseptic condition, and an appropriate amount of nutrient broth was added thereto with a capillary pipette. The strain was melted and dispersed by gently blowing and sucking several times. A test tube containing 5.0 mL-10.0 mL of nutrient broth medium was provided, and a small amount of bacterial suspension was dropped thereto, and incubated at 37° C. for 18 h-24 h. The bacterial suspension of the first generation culture was taken by using an inoculation loop.
b. The monoclonal strains of the first generation culture were picked out and placed in 3 mL of NMB. The strains were shaken in a constant temperature culture shaker for 3 h with a rotation speed of 220 rpm, obtaining a bacterial suspension with a concentration of (1-5)×10^8 CFU/mL.
(§2) c. 0.5 mL of bacterial suspension was added to a sterile test tube, and 0.5 mL of an organic interfering substance (0.03 mol/L PBS buffer) was then added thereto. They were mixed to be uniform, and placed in a water bath at 20° C.±1° C. for 5 min. 4.0 mL of the sample to be tested prepared in step (1) was drawn with a sterile pipette and injected into the mixed solution, mixed quickly, and the time was recorded immediately.
(§3) d. After the experimental bacteria interacted with the sample to be tested for the predetermined time. 0.5 mL of the mixture of the experimental bacteria and a disinfectant was drawn respectively and added to 4.5 mL of a neutralizer, and mixed to be uniform.
(§4) e. After 10 min of neutralization, 1.0 mL of the sample solution was drawn, and the number of viable bacteria was determined by viable count method. After the viable count method, sample solution of each pipette was inoculated onto 2 plates. When the number of colonies growing on the plate was large, 10-fold dilution was performed, and then the viable bacteria was cultured and counted.
h. At the same time, PBS buffer was used to replace the sample to be tested, and a parallel test was performed as a positive control.
f. All test samples were placed in a 37° C. incubator overnight, and the results were observed.
g. The experiment was repeated for 3 times, the concentration of viable bacteria (CFU/mL) of each group was calculated, and converted to logarithmic value (N), and then the killing logarithmic value was calculated according to the following equation:
(§5) Killing logarithmic value (KL)=the logarithmic value of the average viable bacteria concentration of the control group (No)−the logarithmic value of the viable bacteria concentration of the test group (Nx).
(§6) When calculating the killing logarithmic value, two digits after the decimal point was kept, and digital round-off was allowed.

[2] = system: Escherichia coli ATCC 25922; experiment: Suspension quantitative sterilization experiment, Escherichia coli ATCC 25922; conditions: suspension method, 6.25 g/L, action time 30 min
Protocol: (§7) (5) Operation Method of Suspension Quantitative Experiment:
as §1, with “The” for “The Bacillus subtilis var. niger spores ATCC 9372”, “loop, and streaked and inoculated onto a nutrient agar medium plate, and incubated at 37° C. for 18 h-24 h. The typical colonies from the second generation culture was picked out, inoculated onto a nutrient agar slant, and incubated at 37° C. for 18 h-24 h, obtaining the third generation culture.” for “loop.”
(§8) b. The monoclonal strains of the third generation culture of Escherichia coli ATCC 25922, Staphylococcus aureus ATCC 29213, and Pseudomonas aeruginosa ATCC 27853 were picked out respectively and placed in 3 mL of NMB. The strains were shaken in a constant temperature culture shaker for 3 h with a rotation speed of 220 rpm, obtaining a bacterial suspension with a concentration of (1-5)×10^8 CFU/mL.
as §2
as §3, with “time of 1 min, 5 min, 15 min and 30 min.” for “time.”, “the sample to be tested” for “a disinfectant”
as §4
(§9) f. At the same time, PBS buffer was used to replace the sample to be tested, and a parallel test was performed as a positive control.
(§10) g. All test samples were placed in a 37° C. incubator overnight, and the results were observed.
(§11) h. The experiment was repeated for 3 times, the concentration of viable bacteria (CFU/mL) of each group was calculated, and converted to logarithmic value (N), and then the killing logarithmic value was calculated according to the following equation:
as §5, §6

[3] = system: Pseudomonas aeruginosa ATCC 27853; experiment: Suspension quantitative sterilization experiment, Pseudomonas aeruginosa ATCC 27853; conditions: suspension method, 6.25 g/L, action time 30 min
Protocol: as §7
as §1, with “The” for “The Bacillus subtilis var. niger spores ATCC 9372”, “loop, and streaked and inoculated onto a nutrient agar medium plate, and incubated at 37° C. for 18 h-24 h. The typical colonies from the second generation culture was picked out, inoculated onto a nutrient agar slant, and incubated at 37° C. for 18 h-24 h, obtaining the third generation culture.” for “loop.”
as §8, §2
as §3, with “time of 1 min, 5 min, 15 min and 30 min.” for “time.”, “the sample to be tested” for “a disinfectant”
as §4, §9, §10, §11, §5, §6

[4] = system: Staphylococcus aureus ATCC 29213; experiment: Suspension quantitative sterilization experiment, Staphylococcus aureus ATCC 29213; conditions: suspension method, 6.25 g/L, action time 30 min
Protocol: as §7
as §1, with “The” for “The Bacillus subtilis var. niger spores ATCC 9372”, “loop, and streaked and inoculated onto a nutrient agar medium plate, and incubated at 37° C. for 18 h-24 h. The typical colonies from the second generation culture was picked out, inoculated onto a nutrient agar slant, and incubated at 37° C. for 18 h-24 h, obtaining the third generation culture.” for “loop.”
as §8, §2
as §3, with “time of 1 min, 5 min, 15 min and 30 min.” for “time.”, “the sample to be tested” for “a disinfectant”
as §4, §9, §10, §11, §5, §6

Structure (SMILES) | log reduction at 15000 µg/mL [1] | Activity (killing logarithmic value) [2] | Activity (killing logarithmic value) [3] | Activity (killing logarithmic value) [4]
O=C(O)C(c1ccc(O)c(O)c1)c1ccc(O)c(O)c1 [Example 8, 2,2-di-(3,4-dihydroxyphenyl)acetic acid] | 2.13 | 1.73 | 0.88 | 0.91
CNC(=O)C(c1ccncc1)c1ccc(O)c(O)c1 (centres unmarked) [Example 6, 2-(3,4-dihydroxyphenyl)-N-methyl-2-(4-pyridyl)acetamide] | 0.76 | 1.64 | 0.31 | 1.78
CC(C)NC(=O)C(c1ccccc1)c1ccc(O)cc1 (centres unmarked) [Example 2, 2-(4-hydroxyphenyl)-N-isopropyl-2-phenylacetamide] | 0.98 | 0.97 | 0.99 | 0.89
Cc1ccc(C(C(=O)O)c2ccc(O)cc2)cc1 (centres unmarked) [Example 4, 2-(4-hydroxyphenyl)-2-p-tolueneacetic acid] | 1.54 | 0.78 | 0.78 | 0.75
CNC(=O)C(c1ccc(O)c(O)c1)C1CCCCC1 (centres unmarked) [Example 1, 2-cyclohexyl-2-(3,4-dihydroxyphenyl)-N-methylacetamide] | 1.35 | 1.23 | 1.31 | 1.16
